Results published in patent US20050112066A1, “Complexes of cyclic polyaza chelators with cations of alkaline earth metals for enhanced biological activity” (CONCAT LP, a California Limited Partnership, priority 2003, published 2005).
≈ marks a conversion by molar mass, not a printed value. Read-outs that look alike come from different tables or passages of the source.

Legend:
[1] = tested on: HFF (human foreskin fibroblasts); assay: toxicity toward nonproliferating mammalian cells in vitro; format: cell-based; settings: 0.3 mM; mature, nonreplicating HFF cultures in maintenance media; five-day period of observation
Method: This example illustrates the relatively low toxicity of a representative example of the chelators of this invention toward nonproliferating mammalian cells in vitro.
To mature, nonreplicating cultures of HFF (human foreskin fibroblasts) kept in maintenance media was added N,N′,N″-tris(dihydroxyphosphorylmethyl)-1,4,7-triazacyclononane at a concentration of 0.3 mM. No effect on the resting cells was observed over a five-day period of observation.

[2] = tested on: Sprague Dawley rats; assay: subacute toxicity, repeated intravenous doses to rats; format: in vivo; settings: 0.05 millimoles per kg i.v. on 10 days
Text: Ten male Sprague Dawley rats 29 days old and weighing between 73.4 and 87.8 grams at the beginning of the experiment were randomized, employing the block stratification method, into two groups consisting of five rats each. On each of days 1, 2, 3, 6, 7, 8, 9, 10,13 and 14 of the experiment one set of rats received an intravenous dose of N,N′,N″-tri(dihydroxyphosphoryl methyl)-1,4,7-triazacyclononane equal to 0.05 millimoles per kg of initial body weight (experimental group) while the other group received an equivalent volume of normal saline solution. The weights of the animals were recorded three times per week and the animals were sacrificed on the 28th day, major organs removed and weighed and tissues removed for microscopic examination.

[3] = room temperature; cited from earlier work
[4] = tested on: Corynebacterium Xerosis; assay: minimum inhibitory concentration against skin bacteria; format: cell-based
Method: This effect is unexpected since the presence of cations other than those of first transition series elements would be expected to inhibit the rate and extent of complexation of the first transition series elements by both the cyclic and linear chelators, albeit to differing degrees.
Two chelators were compared in terms of their minimum inhibitory concentrations (MIC) against the common skin bacteria Corynebacterium Xerosis in media containing either 3.7 mg/L or 137 mg/L of Ca(II). The two chelators were N,N′,N″-tri(dihydroxyphosphoryl methyl)-1,4,7-triazacyclononane (within the scope of the present invention) and diethylene triamine pentaacetic acid (DTPA) (outside the scope of the present invention). The MIC for the triazacyclononane was 8 μg/mL in medium containing 3.7 mg/L of Ca(II), and 5 μg/mL in medium containing 137 mg/L of Ca(II).

[5] = tested on: Laboratory mice; assay: acute in vivo toxicity, single intravenous dose to mice; settings: 3.0 mM/kg single intravenous dose
Method: This example illustrates the low in vivo toxicity of a representative example of the chelators of this invention upon administration to mice.
Laboratory mice were treated by the intravenous administration of 3.0 mM/kg intravenously of the sodium salt of N,N′,N″-tris(dihydroxyphosphoryl-methyl)-1,4,7-triazacyclononane as a single intravenous dose. […] This in vivo LD50 toxicity dose results in an instantaneous in vivo concentration which is orders of magnitude greater than the dose of this agent which inhibits mammalian cell replication in vitro (0.009 mM/L).

[6] = tested on: mammalian cell replication; assay: inhibition of mammalian cell replication in vitro; format: cell-based

O=P(O)(O)CN1CCN(CP(=O)(O)O)CCN(CP(=O)(O)O)CC1 [N,N′,N″-Tris-(dihydroxyphosphorylmethyl)-1,4,7-triazacyclononane]
effect on the resting cells [1]: No effect
differences between tissues upon microscopic examination of major organs vs control group ([2]; necropsy on the 28th day): no differences
difference in weight or rate of weight gain vs control group ([2]; period of injections and two-week post-injection period): no statistically significant difference
differences in weights of major organs vs control group ([2]; sacrificed on the 28th day): no differences
time to achieve equilibrium with the cations [3]: many months
MIC ([4]; Corynebacterium xerosis, medium containing 3.7 mg/L of Ca(II), read-out: MIC): 8 µg/mL (≈ 19.5 µM)
MIC ([4]; Corynebacterium xerosis, medium containing 137 mg/L of Ca(II), read-out: MIC): 5 µg/mL (≈ 12.2 µM)

O=P([O-])([O-])CN1CCN(CP(=O)(O)O)CCN(CP(=O)(O)O)CC1.[Na+].[Na+] [sodium salt of N,N′,N″-tris(dihydroxyphosphoryl-methyl)-1,4,7-triazacyclononane]
mice surviving for over 14 days [5]: Over 50%
dose which inhibits mammalian cell replication in vitro [6]: 0.009 mM/L

O=C(O)CN(CCN(CC(=O)O)CC(=O)O)CCN(CC(=O)O)CC(=O)O [DTPA, diethylene triamine pentaacetic acid, reference compound]
MIC ([4]; medium containing 3.7 mg/L of Ca(II)): 36 µg/mL (≈ 91.5 µM)
MIC ([4]; medium containing 137 mg/L of Ca(II)): 320 µg/mL (≈ 814 µM)
